Organism: Rattus norvegicus
Experiment: DrugMatrix - Regimen: Daily Repeat
Type: toxicity, organism-based, Sprague-Dawley
Design: regimen Daily Repeat, gender Male, age 6-8 weeks
Conditions: in vivo, po, route oral GAVAGE, vehicle .5 % CMC; for TOTAL PROTEIN / ALANINE AMINOTRANSFERASE / ALBUMIN / ALKALINE PHOSPHATASE / ASPARTATE AMINOTRANSFERASE / CARBON DIOXIDE / CHLORIDE / CHOLESTEROL / CREATINE PHOSPHOKINASE / CREATININE / GLUCOSE / LACTATE DEHYDROGENASE / LIPASE / PHOSPHORUS / POTASSIUM / SODIUM / TOTAL BILIRUBIN / BLOOD UREA NITROGEN: tissue Plasma; for ABSOLUTE BASOPHIL / ABSOLUTE EOSINOPHIL / ABSOLUTE LYMPHOCYTE / ABSOLUTE MONOCYTE / ABSOLUTE SEGMENTED NEUTROPHIL / BASOPHIL / EOSINOPHIL / ERYTHROCYTE COUNT / HEMATOCRIT / HEMOGLOBIN / LEUKOCYTE COUNT / LYMPHOCYTE / MEAN CORPUSCULAR HEMOGLOBIN / MEAN CORPUSCULAR HEMOGLOBIN CONCENTRATION / MEAN CORPUSCULAR VOLUME / MONOCYTE / NEUTROPHIL / NUCLEATED RED BLOOD CELLS / PLATELET COUNT: tissue Blood
[1] = 25 mg/kg, 120 h, dose level Low, time 5 day
[2] = 1500 mg/kg, 72 h, dose level High, time 3 day
[3] = 1500 mg/kg, 120 h, dose level High, time 5 day

COc1cc(/C=C/C(=O)O)ccc1O [FERULATE]
TOTAL PROTEIN (25 mg/kg, 72 h, dose level Low, time 3 day): 5.97 G/DL
ABSOLUTE BASOPHIL [1]: 0 CELLS/uL
ABSOLUTE EOSINOPHIL [1]: 170 CELLS/uL
ABSOLUTE LYMPHOCYTE [1]: 14805 CELLS/uL
ABSOLUTE MONOCYTE [1]: 286 CELLS/uL
ABSOLUTE SEGMENTED NEUTROPHIL [1]: 1439 CELLS/uL
BASOPHIL [1]: 0%
EOSINOPHIL [1]: 1.33%
ERYTHROCYTE COUNT [1]: 5.63 x10E6/uL
HEMATOCRIT [1]: 35.7%
HEMOGLOBIN [1]: 13.7 G/DL
LEUKOCYTE COUNT [1]: 16.7 x10E3/uL
LYMPHOCYTE [1]: 87.67%
MEAN CORPUSCULAR HEMOGLOBIN [1]: 24.43 pg
MEAN CORPUSCULAR HEMOGLOBIN CONCENTRATION [1]: 38.37 G/DL
MEAN CORPUSCULAR VOLUME [1]: 63.63 fL
MONOCYTE [1]: 1.67%
NEUTROPHIL [1]: 9.33%
NUCLEATED RED BLOOD CELLS [1]: 0.33 /100WBC
PLATELET COUNT [1]: 1379.67 x10E3/uL
ALANINE AMINOTRANSFERASE [1]: 52.67 u/L
ALBUMIN [1]: 4.27 G/DL
ALKALINE PHOSPHATASE [1]: 350.33 u/L
ASPARTATE AMINOTRANSFERASE [1]: 91.33 u/L
CARBON DIOXIDE [1]: 28 mmol/L
CHLORIDE [1]: 104.67 MEQ/L
CHOLESTEROL [1]: 79.67 mg/dL
CREATINE PHOSPHOKINASE [1]: 317 u/L
CREATININE [1]: 0.18 mg/dL
GLUCOSE [1]: 160.67 mg/dL
LACTATE DEHYDROGENASE [1]: 421.67 u/L
LIPASE [1]: 9.33 u/L
PHOSPHORUS [1]: 12.9 mg/dL
POTASSIUM [1]: 6.65 MEQ/L
SODIUM [1]: 144.87 MEQ/L
TOTAL BILIRUBIN [1]: 0.17 mg/dL
TOTAL PROTEIN [1]: 5.93 G/DL
ABSOLUTE BASOPHIL [2]: 0 CELLS/uL
ABSOLUTE EOSINOPHIL [2]: 42 CELLS/uL
ABSOLUTE LYMPHOCYTE [2]: 12584.67 CELLS/uL
ABSOLUTE MONOCYTE [2]: 382 CELLS/uL
ABSOLUTE SEGMENTED NEUTROPHIL [2]: 1124.67 CELLS/uL
BASOPHIL [2]: 0%
EOSINOPHIL [2]: 0.33%
ERYTHROCYTE COUNT [2]: 5.75 x10E6/uL
HEMATOCRIT [2]: 35.2%
HEMOGLOBIN [2]: 13.03 G/DL
LEUKOCYTE COUNT [2]: 14.13 x10E3/uL
LYMPHOCYTE [2]: 89%
MEAN CORPUSCULAR HEMOGLOBIN [2]: 22.7 pg
MEAN CORPUSCULAR HEMOGLOBIN CONCENTRATION [2]: 37.03 G/DL
MEAN CORPUSCULAR VOLUME [2]: 61.23 fL
MONOCYTE [2]: 2.67%
NEUTROPHIL [2]: 8%
NUCLEATED RED BLOOD CELLS [2]: 0.33 /100WBC
PLATELET COUNT [2]: 1425.67 x10E3/uL
ALANINE AMINOTRANSFERASE [2]: 67.67 u/L
ALBUMIN [2]: 4.13 G/DL
ALKALINE PHOSPHATASE [2]: 355 u/L
ASPARTATE AMINOTRANSFERASE [2]: 102.67 u/L
BLOOD UREA NITROGEN [2]: 13.67 mg/dL
CARBON DIOXIDE [2]: 25.67 mmol/L
CHLORIDE [2]: 103.33 MEQ/L
CHOLESTEROL [2]: 81.67 mg/dL
CREATINE PHOSPHOKINASE [2]: 489 u/L
CREATININE [2]: 0.15 mg/dL
GLUCOSE [2]: 140.67 mg/dL
LACTATE DEHYDROGENASE [2]: 475.67 u/L
LIPASE [2]: 10 u/L
PHOSPHORUS [2]: 10.73 mg/dL
POTASSIUM [2]: 6.23 MEQ/L
SODIUM [2]: 143.87 MEQ/L
TOTAL BILIRUBIN [2]: 0.2 mg/dL
TOTAL PROTEIN [2]: 5.5 G/DL
ABSOLUTE BASOPHIL [3]: 0 CELLS/uL
ABSOLUTE EOSINOPHIL [3]: 97 CELLS/uL
ABSOLUTE LYMPHOCYTE [3]: 18780.67 CELLS/uL
ABSOLUTE MONOCYTE [3]: 55.33 CELLS/uL
ABSOLUTE SEGMENTED NEUTROPHIL [3]: 967 CELLS/uL
BASOPHIL [3]: 0%
EOSINOPHIL [3]: 0.33%
ERYTHROCYTE COUNT [3]: 6.33 x10E6/uL
HEMATOCRIT [3]: 38.23%
HEMOGLOBIN [3]: 14.4 G/DL
LEUKOCYTE COUNT [3]: 19.9 x10E3/uL
LYMPHOCYTE [3]: 94%
MEAN CORPUSCULAR HEMOGLOBIN [3]: 22.73 pg
MEAN CORPUSCULAR HEMOGLOBIN CONCENTRATION [3]: 37.67 G/DL
MEAN CORPUSCULAR VOLUME [3]: 60.37 fL
MONOCYTE [3]: 0.33%
NEUTROPHIL [3]: 5.33%
NUCLEATED RED BLOOD CELLS [3]: 0.33 /100WBC
PLATELET COUNT [3]: 1095 x10E3/uL
ALANINE AMINOTRANSFERASE [3]: 64.33 u/L
ALBUMIN [3]: 4.57 G/DL
ALKALINE PHOSPHATASE [3]: 399 u/L
ASPARTATE AMINOTRANSFERASE [3]: 93.67 u/L
BLOOD UREA NITROGEN [3]: 16.33 mg/dL
CARBON DIOXIDE [3]: 26 mmol/L
CHLORIDE [3]: 107 MEQ/L
CHOLESTEROL [3]: 64.67 mg/dL
CREATINE PHOSPHOKINASE [3]: 723.33 u/L
CREATININE [3]: 0.21 mg/dL
GLUCOSE [3]: 164.33 mg/dL
LACTATE DEHYDROGENASE [3]: 166.67 u/L
LIPASE [3]: 9.67 u/L
PHOSPHORUS [3]: 11.4 mg/dL
POTASSIUM [3]: 6.41 MEQ/L
SODIUM [3]: 146.6 MEQ/L
TOTAL BILIRUBIN [3]: 0.2 mg/dL
TOTAL PROTEIN [3]: 6.17 G/DL
